Results taken from ChEMBL document CHEMBL5058644, “Data for DCP probe JNJ-39758979” (2022).

Experiments:
Conditions in all cases: Compound concentration 10.0 uM
[1] = target: Tyrosine-protein kinase ABL1 (Homo sapiens) (UniProt P00519); test: Abl(h) Millipore kinase panel
[2] = target: ALK tyrosine kinase receptor (Homo sapiens) (UniProt Q9UM73); test: ALK(h) Millipore kinase panel
Rattus norvegicus = species on record: Rattus norvegicus; test: AMPK(r) Millipore kinase panel
[3] = target: Tyrosine-protein kinase BTK (Homo sapiens) (UniProt Q06187); test: BTK(h) Millipore kinase panel
[4] = target: Calcium/calmodulin-dependent protein kinase type 1 (Homo sapiens) (UniProt Q14012); test: CaMKI(h) Millipore kinase panel
[5] = target: Cyclin-dependent kinase 2 (Homo sapiens) (UniProt P24941); test: CDK2/cyclinA(h) Millipore kinase panel
[6] = target: Serine/threonine-protein kinase Chk2 (Homo sapiens) (UniProt O96017); test: CHK2(h) Millipore kinase panel
[7] = target: Casein kinase I isoform delta (Homo sapiens) (UniProt P48730); test: CK1δ(h) Millipore kinase panel
Homo sapiens = species on record: Homo sapiens; test: CK2(h) Millipore kinase panel
[8] = target: Dual specificity protein kinase CLK3 (Homo sapiens) (UniProt P49761); test: CLK3(h) Millipore kinase panel
[9] = target: RAF proto-oncogene serine/threonine-protein kinase (Homo sapiens) (UniProt P04049); test: c-RAF(h) Millipore kinase panel
[10] = target: Tyrosine-protein kinase CSK (Homo sapiens) (UniProt P41240); test: CSK(h) Millipore kinase panel
[11] = target: Proto-oncogene tyrosine-protein kinase Src (Homo sapiens) (UniProt P12931); test: cSRC(h) Millipore kinase panel
[12] = target: Death-associated protein kinase 1 (Homo sapiens) (UniProt P53355); test: DAPK1(h) Millipore kinase panel
[13] = target: Serine/threonine-protein kinase DCLK2 (Homo sapiens) (UniProt Q8N568); test: DCAMKL2(h) Millipore kinase panel
[14] = target: Discoidin domain-containing receptor 2 (Homo sapiens) (UniProt Q16832); test: DDR2(h) Millipore kinase panel
[15] = target: Epidermal growth factor receptor (Homo sapiens) (UniProt P00533); test: EGFR(h) Millipore kinase panel
[16] = target: Ephrin type-A receptor 1 (Homo sapiens) (UniProt P21709); test: EphA1(h) Millipore kinase panel
[17] = target: Focal adhesion kinase 1 (Homo sapiens) (UniProt Q05397); test: FAK(h) Millipore kinase panel
[18] = target: Tyrosine-protein kinase Fer (Homo sapiens) (UniProt P16591); test: Fer(h) Millipore kinase panel
[19] = target: Glycogen synthase kinase-3 alpha (Homo sapiens) (UniProt P49840); test: GSK3α(h) Millipore kinase panel
[20] = target: Glycogen synthase kinase-3 beta (Homo sapiens) (UniProt P49841); test: GSK3β(h) Millipore kinase panel
[21] = target: Interleukin-1 receptor-associated kinase 1 (Homo sapiens) (UniProt P51617); test: IRAK1(h) Millipore kinase panel
[22] = target: Interleukin-1 receptor-associated kinase 4 (Homo sapiens) (UniProt Q9NWZ3); test: IRAK4(h) Millipore kinase panel
[23] = target: Tyrosine-protein kinase JAK2 (Homo sapiens) (UniProt O60674); test: JAK2(h) Millipore kinase panel
[24] = target: Mitogen-activated protein kinase 8 (Homo sapiens) (UniProt P45983); test: JNK1α1(h) Millipore kinase panel
[25] = target: LIM domain kinase 1 (Homo sapiens) (UniProt P53667); test: LIMK1(h) Millipore kinase panel
[26] = target: Serine/threonine-protein kinase STK11 (Homo sapiens) (UniProt Q15831); test: LKB1(h) Millipore kinase panel
[27] = target: Mitogen-activated protein kinase kinase kinase 9 (Homo sapiens) (UniProt P80192); test: MLK1(h) Millipore kinase panel
[28] = target: Ribosomal protein S6 kinase alpha-5 (Homo sapiens) (UniProt O75582); test: MSK1(h) Millipore kinase panel
[29] = target: Muscle, skeletal receptor tyrosine-protein kinase (Homo sapiens) (UniProt O15146); test: MuSK(h) Millipore kinase panel
[30] = target: Serine/threonine-protein kinase Nek2 (Homo sapiens) (UniProt P51955); test: NEK2(h) Millipore kinase panel
[31] = target: Ribosomal protein S6 kinase beta-1 (Homo sapiens) (UniProt P23443); test: p70S6K(h) Millipore kinase panel
[32] = target: Serine/threonine-protein kinase pim-1 (Homo sapiens) (UniProt P11309); test: Pim-1(h) Millipore kinase panel
[33] = target: cAMP-dependent protein kinase catalytic subunit alpha (Homo sapiens) (UniProt P17612); test: PKA(h) Millipore kinase panel
[34] = target: RAC-alpha serine/threonine-protein kinase (Homo sapiens) (UniProt P31749); test: PKBα(h) Millipore kinase panel
[35] = target: RAC-beta serine/threonine-protein kinase (Homo sapiens) (UniProt P31751); test: PKBβ(h) Millipore kinase panel
[36] = target: RAC-gamma serine/threonine-protein kinase (Homo sapiens) (UniProt Q9Y243); test: PKBγ(h) Millipore kinase panel
[37] = target: Protein kinase C alpha type (Homo sapiens) (UniProt P17252); test: PKCα(h) Millipore kinase panel
[38] = target: Serine/threonine-protein kinase D2 (Homo sapiens) (UniProt Q9BZL6); test: PKD2(h) Millipore kinase panel
[39] = target: cGMP-dependent protein kinase 1 (Homo sapiens) (UniProt Q13976); test: PKG1α(h) Millipore kinase panel
[40] = target: Serine/threonine-protein kinase PLK3 (Homo sapiens) (UniProt Q9H4B4); test: Plk3(h) Millipore kinase panel
[41] = target: Proto-oncogene tyrosine-protein kinase receptor Ret (Homo sapiens) (UniProt P07949); test: Ret(h) Millipore kinase panel
[42] = target: Proto-oncogene tyrosine-protein kinase ROS (Homo sapiens) (UniProt P08922); test: Ros(h) Millipore kinase panel
[43] = target: Serine/threonine-protein kinase Sgk1 (Homo sapiens) (UniProt O00141); test: SGK(h) Millipore kinase panel
[44] = target: Serine/threonine-protein kinase 33 (Homo sapiens) (UniProt Q9BYT3); test: STK33(h) Millipore kinase panel
[45] = target: Tyrosine-protein kinase SYK (Homo sapiens) (UniProt P43405); test: Syk(h) Millipore kinase panel
[46] = target: Angiopoietin-1 receptor (Homo sapiens) (UniProt Q02763); test: Tie2(h) Millipore kinase panel
[47] = target: High affinity nerve growth factor receptor (Homo sapiens) (UniProt P04629); test: TrkA(h) Millipore kinase panel
[48] = target: Testis-specific serine/threonine-protein kinase 1 (Homo sapiens) (UniProt Q9BXA7); test: TSSK1(h) Millipore kinase panel

Chain of Ribosomal protein S6 kinase alpha-5 (Homo sapiens) (O75582 whole entry, looked up): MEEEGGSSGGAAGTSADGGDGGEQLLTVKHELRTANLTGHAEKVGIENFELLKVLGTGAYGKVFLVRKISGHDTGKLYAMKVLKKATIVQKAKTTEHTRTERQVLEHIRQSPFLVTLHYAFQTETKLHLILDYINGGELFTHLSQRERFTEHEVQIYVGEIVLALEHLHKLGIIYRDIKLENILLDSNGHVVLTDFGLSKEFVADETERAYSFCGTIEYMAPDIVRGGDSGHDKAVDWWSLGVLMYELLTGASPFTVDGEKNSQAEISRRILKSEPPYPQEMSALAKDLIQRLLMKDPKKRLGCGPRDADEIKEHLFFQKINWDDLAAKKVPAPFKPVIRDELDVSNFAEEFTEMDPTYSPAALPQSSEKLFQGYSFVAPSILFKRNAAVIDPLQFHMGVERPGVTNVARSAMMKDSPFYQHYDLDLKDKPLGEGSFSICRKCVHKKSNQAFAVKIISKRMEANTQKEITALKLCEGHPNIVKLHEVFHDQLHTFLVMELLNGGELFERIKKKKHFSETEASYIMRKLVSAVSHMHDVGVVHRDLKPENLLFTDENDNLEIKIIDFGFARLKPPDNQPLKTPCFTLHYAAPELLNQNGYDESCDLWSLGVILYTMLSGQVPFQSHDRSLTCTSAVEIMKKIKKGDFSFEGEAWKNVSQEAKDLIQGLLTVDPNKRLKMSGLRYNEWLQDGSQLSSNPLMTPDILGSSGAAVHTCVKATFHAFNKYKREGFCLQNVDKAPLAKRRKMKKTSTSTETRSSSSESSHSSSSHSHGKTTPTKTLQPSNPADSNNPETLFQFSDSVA
Chain of Angiopoietin-1 receptor (Homo sapiens) (Q02763 whole entry): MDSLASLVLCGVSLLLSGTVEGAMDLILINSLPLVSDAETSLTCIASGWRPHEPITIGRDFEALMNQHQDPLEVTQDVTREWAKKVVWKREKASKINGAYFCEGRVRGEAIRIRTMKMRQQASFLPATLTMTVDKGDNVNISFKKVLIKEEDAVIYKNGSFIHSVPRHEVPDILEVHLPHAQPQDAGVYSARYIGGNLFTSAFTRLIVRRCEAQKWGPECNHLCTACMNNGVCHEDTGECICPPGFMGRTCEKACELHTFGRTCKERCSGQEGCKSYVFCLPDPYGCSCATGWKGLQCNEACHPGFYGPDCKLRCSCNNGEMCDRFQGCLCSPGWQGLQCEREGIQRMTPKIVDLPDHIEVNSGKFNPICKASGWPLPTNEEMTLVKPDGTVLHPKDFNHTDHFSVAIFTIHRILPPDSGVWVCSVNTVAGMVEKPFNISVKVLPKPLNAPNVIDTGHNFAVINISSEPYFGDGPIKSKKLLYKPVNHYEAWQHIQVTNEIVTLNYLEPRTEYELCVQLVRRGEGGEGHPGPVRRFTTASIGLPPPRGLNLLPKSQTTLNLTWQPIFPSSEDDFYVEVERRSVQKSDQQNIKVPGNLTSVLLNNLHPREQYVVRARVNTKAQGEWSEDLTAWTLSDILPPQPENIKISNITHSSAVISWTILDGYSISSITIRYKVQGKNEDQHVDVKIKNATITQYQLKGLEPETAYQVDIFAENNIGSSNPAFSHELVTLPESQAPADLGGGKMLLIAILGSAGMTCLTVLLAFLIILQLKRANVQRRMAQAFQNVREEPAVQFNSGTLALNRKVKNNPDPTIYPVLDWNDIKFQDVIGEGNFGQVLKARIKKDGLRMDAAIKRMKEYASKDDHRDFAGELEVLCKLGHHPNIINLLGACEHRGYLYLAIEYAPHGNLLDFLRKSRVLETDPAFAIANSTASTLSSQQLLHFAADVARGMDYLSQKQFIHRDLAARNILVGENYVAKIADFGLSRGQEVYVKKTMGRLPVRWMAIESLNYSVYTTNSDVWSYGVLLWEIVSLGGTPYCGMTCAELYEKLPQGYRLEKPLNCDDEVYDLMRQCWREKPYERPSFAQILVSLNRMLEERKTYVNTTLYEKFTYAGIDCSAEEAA
Chain of Serine/threonine-protein kinase Nek2 (Homo sapiens) (P51955 whole entry): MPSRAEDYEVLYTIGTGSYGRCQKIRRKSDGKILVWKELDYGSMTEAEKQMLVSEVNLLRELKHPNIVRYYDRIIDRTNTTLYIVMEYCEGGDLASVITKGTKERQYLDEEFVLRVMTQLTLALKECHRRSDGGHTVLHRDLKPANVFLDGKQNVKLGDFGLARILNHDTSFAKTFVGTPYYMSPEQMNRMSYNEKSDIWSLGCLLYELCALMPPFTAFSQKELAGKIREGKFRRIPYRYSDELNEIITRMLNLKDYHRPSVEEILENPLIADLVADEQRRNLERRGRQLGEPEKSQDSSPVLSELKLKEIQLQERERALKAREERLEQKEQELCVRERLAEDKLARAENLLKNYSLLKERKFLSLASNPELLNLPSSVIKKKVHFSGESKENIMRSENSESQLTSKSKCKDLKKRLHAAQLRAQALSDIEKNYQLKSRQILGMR
Chain of Serine/threonine-protein kinase 33 (Homo sapiens) (Q9BYT3 whole entry, looked up): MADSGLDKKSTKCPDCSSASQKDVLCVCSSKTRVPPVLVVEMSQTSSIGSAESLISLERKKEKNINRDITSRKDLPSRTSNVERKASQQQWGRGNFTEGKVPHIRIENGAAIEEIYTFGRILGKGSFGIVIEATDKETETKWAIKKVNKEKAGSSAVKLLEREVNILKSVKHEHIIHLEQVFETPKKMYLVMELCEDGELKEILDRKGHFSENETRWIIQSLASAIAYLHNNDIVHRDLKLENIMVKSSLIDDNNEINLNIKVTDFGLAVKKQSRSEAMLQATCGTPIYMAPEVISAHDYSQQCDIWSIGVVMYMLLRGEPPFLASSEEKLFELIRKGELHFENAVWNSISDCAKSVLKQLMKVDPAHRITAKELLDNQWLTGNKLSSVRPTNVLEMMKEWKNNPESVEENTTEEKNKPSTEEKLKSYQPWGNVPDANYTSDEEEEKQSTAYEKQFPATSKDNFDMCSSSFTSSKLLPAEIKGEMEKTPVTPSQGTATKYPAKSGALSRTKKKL
Chain of Tyrosine-protein kinase CSK (Homo sapiens) (P41240 2-450 limits assumed): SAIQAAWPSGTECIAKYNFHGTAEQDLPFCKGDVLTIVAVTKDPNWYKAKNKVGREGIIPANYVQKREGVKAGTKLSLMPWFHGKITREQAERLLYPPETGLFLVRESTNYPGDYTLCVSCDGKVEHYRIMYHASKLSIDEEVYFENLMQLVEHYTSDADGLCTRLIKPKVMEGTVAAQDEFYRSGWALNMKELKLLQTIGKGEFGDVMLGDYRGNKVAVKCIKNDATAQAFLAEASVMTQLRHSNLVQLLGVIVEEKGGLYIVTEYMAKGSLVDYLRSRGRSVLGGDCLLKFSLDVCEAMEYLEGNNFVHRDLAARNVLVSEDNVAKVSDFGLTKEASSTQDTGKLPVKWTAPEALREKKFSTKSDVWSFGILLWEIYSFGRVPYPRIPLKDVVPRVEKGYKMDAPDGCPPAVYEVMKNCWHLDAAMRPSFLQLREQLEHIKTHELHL
Chain of Serine/threonine-protein kinase Sgk1 (Homo sapiens) (O00141 whole entry): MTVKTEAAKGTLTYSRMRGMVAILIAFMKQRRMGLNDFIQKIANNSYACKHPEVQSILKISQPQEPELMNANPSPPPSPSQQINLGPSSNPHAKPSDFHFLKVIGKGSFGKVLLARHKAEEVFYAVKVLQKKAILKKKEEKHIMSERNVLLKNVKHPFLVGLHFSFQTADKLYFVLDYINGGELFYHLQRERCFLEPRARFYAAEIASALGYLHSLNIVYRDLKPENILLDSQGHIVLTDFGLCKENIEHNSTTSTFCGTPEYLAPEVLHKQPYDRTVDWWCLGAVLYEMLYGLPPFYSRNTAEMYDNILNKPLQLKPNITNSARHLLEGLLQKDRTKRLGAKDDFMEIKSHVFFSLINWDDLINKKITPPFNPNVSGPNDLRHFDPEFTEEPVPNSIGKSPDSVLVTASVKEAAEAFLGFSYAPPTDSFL
Chain of Tyrosine-protein kinase BTK (Homo sapiens) (Q06187 whole entry): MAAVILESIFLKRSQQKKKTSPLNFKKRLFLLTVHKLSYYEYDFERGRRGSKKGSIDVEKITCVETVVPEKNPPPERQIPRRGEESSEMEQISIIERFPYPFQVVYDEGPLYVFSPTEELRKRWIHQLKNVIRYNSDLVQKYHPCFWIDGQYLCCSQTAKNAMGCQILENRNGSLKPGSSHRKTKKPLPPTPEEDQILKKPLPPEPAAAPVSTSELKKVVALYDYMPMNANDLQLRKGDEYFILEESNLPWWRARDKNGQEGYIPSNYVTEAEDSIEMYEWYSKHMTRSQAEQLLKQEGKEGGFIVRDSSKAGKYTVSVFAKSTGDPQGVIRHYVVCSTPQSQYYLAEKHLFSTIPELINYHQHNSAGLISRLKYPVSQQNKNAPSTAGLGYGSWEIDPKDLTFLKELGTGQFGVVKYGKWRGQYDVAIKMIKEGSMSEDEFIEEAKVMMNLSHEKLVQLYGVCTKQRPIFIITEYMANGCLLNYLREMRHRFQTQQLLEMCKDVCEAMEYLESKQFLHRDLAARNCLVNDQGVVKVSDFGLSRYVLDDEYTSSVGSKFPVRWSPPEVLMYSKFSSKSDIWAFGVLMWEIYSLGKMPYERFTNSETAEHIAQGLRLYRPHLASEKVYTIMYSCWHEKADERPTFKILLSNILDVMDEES
Chain of Interleukin-1 receptor-associated kinase 4 (Homo sapiens) (Q9NWZ3 whole entry): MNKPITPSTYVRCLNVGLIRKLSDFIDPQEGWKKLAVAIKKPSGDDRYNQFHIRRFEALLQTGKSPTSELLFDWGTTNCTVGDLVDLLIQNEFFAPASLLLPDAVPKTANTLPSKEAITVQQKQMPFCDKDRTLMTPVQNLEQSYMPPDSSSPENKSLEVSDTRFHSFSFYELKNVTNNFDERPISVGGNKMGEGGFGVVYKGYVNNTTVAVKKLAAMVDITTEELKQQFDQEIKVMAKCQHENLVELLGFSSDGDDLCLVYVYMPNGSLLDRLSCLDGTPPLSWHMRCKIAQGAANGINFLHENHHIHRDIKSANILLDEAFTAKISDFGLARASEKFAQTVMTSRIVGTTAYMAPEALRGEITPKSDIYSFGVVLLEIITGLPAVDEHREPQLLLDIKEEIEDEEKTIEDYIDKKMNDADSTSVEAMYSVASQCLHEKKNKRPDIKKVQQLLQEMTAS

inhibition [1]: -2%
inhibition [2]: 12%
inhibition (Rattus norvegicus): 1%
inhibition [3]: -9%
inhibition [4]: 3%
inhibition [5]: -3%
inhibition [6]: 4%
inhibition [7]: 1%
inhibition (Homo sapiens): 4%
inhibition [8]: 9%
inhibition [9]: -5%
inhibition [10]: -9%
inhibition [11]: -5%
inhibition [13]: 1%
inhibition [14]: -8%
inhibition [15]: 2%
inhibition [16]: -6%
inhibition [17]: -1%
inhibition [18]: -8%
inhibition [19]: 8%
inhibition [20]: 0%
inhibition [21]: -6%
inhibition [22]: -5%
inhibition [23]: -7%
inhibition [24]: 10%
inhibition [25]: -10%
inhibition [26]: 0%
inhibition [27]: 6%
inhibition [28]: 6%
inhibition [29]: -9%
inhibition [30]: -10%
inhibition [31]: 8%
inhibition [32]: 3%
inhibition [33]: -2%
inhibition [34]: -7%
inhibition [35]: -5%
inhibition [36]: -3%
inhibition [37]: 23%
inhibition [38]: 8%
inhibition [39]: -2%
inhibition [40]: -5%
inhibition [41]: -6%
inhibition [42]: 6%
inhibition [43]: 7%
inhibition [44]: -4%
inhibition [45]: 3%
inhibition [46]: 12%
inhibition [47]: 13%
inhibition [48]: 16%
Compound: CC(C)c1cc(N2CC[C@@H](N)C2)nc(N)n1
inhibition [12]: -3%
